In patent US7741341B2, “Benzimidazole-derivatives as factor Xa inhibitors” (sanofi-aventis Deutschland GmbH, priority 2003, dated 2010):

These compounds were tested against T1, human factor Xa (Homo sapiens, UniProt P00742) (assay: Factor Xa assay (chromogenic, substrate S-2765)). Conditions: read-out: Ki(FXa).
T1 construct: human factor Xa (Enzyme Research Laboratories, Inc; South Bend, Ind.); purchased Enzyme Research Laboratories, Inc; South Bend, Ind
Type: biochemical
Experimental: Purified enzymes were used in chromogenic assays.
The IC50 was determined by combining in appropriate wells of a Costar half-area microtiter plate 25 μl human factor Xa (Enzyme Research Laboratories, Inc.; South Bend, Ind.) in TBS-PEG; 40 μl 10% (v/v) DMSO in TBS-PEG (uninhibited control) or various concentrations of the compound to be tested diluted in 10% (v/v) DMSO in TBS-PEG; and substrate S-2765 (N(α)-benzyloxycarbonyl-D-Arg-Gly-L-Arg-p-nitroanilide; Kabi Pharmacia, Inc.; Franklin, Ohio) in TBS-PEG.
The assay was performed by pre-incubating the compound of formula I plus enzyme for 10 min. Then the assay was initiated by adding substrate to obtain a final volume of 100 μl. […] The enzyme concentration was 0.5 nM and substrate concentration was 140 μM.

T1 sequence (P00742 235-488 limits assumed): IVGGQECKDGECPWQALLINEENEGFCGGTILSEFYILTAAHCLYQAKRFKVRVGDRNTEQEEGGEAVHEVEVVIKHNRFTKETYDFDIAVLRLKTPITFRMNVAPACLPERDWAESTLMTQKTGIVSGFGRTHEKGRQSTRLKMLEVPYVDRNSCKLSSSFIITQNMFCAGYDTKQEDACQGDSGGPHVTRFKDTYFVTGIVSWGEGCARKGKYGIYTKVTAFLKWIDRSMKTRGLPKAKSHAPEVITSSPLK
T1 sequence (P00742 41-179 partner limits assumed): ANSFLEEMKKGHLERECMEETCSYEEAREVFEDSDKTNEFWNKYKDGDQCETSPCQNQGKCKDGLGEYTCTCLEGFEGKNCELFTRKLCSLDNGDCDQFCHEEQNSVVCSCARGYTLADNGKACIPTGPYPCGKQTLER

Ki [nM]	Compound
20	CN1C2CCC1CC(NC(=O)c1nc3ccccc3n1Cc1cc(-c3ccc(Cl)s3)on1)C2 (centres unmarked) [Example 40, 1-[5-(5-Chloro-thiophen-2-yl)-isoxazol-3-ylmethyl]-1H-benzoimidazole-2-carboxylic acid (8-methyl-8-aza-bicyclo[3.2.1]oct-3-yl)-amide]
15.5	CC(C)N1CCC(NC(=O)c2nc3c(C(=O)N(C)CCO)cccc3n2CC(=O)Nc2ccc(Cl)cn2)CC1 [Example 31, 1-[(5-Chloro-pyridin-2-ylcarbamoyl)-methyl]-1H-benzoimidazole-2,4-dicarboxylic acid 4-[(2-hydroxy-ethyl)-methyl-amide] 2-[(1-isopropyl-piperidin-4-yl)-amide]]
2	O=C(Nc1ccc(-n2ccncc2=O)cc1)c1nc2ccccc2n1Cc1cc(-c2ccc(Cl)s2)on1 [Example 48, 1-[5-(5-Chloro-thiophen-2-yl)-isoxazol-3-ylmethyl]-1H-benzoimidazole-2-carboxylic acid [4-(2-oxo-2H-pyrazin-1-yl)-phenyl]-amide]
2.5	COC(=O)c1ccc2c(c1)nc(C(=O)NC1CCN(C(C)C)CC1)n2Cc1cc(-c2ccc(Cl)s2)on1 [Example 5a, 1-[5-(5-Chloro-thiophen-2-yl)-isoxazol-3-ylmethyl]-2-(1-isopropyl-piperidin-4-ylcarbamoyl)-1H-benzoimidazole-5-carboxylic acid methyl ester]
18.5	CC(C)N1CCC(NC(=O)c2nc3cc(C(=O)N4CC(O)C4)ccc3n2Cc2cc(-c3ccc(Cl)s3)on2)CC1 [Example 26, 1-[5-(5-Chloro-thiophen-2-yl)-isoxazol-3-ylmethyl]-5-(3-hydroxy-azetidine-1-carbonyl)-1H-benzoimidazole-2-carboxylic acid (1-isopropyl-piperidin-4-yl)-amide]
15	CC(C)N1CCC(NC(=O)c2nc3c(C(=O)OCC4CC4)cccc3n2CC(=O)Nc2ccc(Cl)cn2)CC1 [Example 69, 1-[(5-Chloro-pyridin-2-ylcarbamoyl)-methyl]-2-(1-isopropyl-piperidin-4-ylcarbamoyl)-1H-benzoimidazole-4-carboxylic acid cyclopropylmethyl ester]
31.5	COC(=O)c1cccc2c1nc(C(=O)Nc1ccc(N3CCOCC3=O)cc1)n2CC(=O)Nc1ccc(Cl)cn1 [Example 36, 1-[(5-Chloro-pyridin-2-ylcarbamoyl)-methyl]-2-[4-(3-oxo-morpholin-4-yl)-phenylcarbamoyl]-1H-benzoimidazole-4-carboxylic acid methyl ester]
8.5	CCOC(=O)OC(C)OC(=O)c1cccc2c1nc(C(=O)NC1CCN(C(C)C)CC1)n2Cc1cc(-c2ccc(Cl)s2)on1 (centres unmarked) [Example 20, 1-[5-(5-Chloro-thiophen-2-yl)-isoxazol-3-ylmethyl]-2-(1-isopropyl-piperidin-4-ylcarbamoyl)-1H-benzoimidazole-4-carboxylic acid 1-ethoxycarbonyloxy-ethyl ester]
0.7	CC(C)N1CCC(NC(=O)c2nc3ccccc3n2Cc2cc(-c3ccc(Cl)s3)on2)CC1 [Example 1, 1-[5-(5-Chloro-thiophen-2-yl)-isoxazol-3-ylmethyl]-1H-benzoimidazole-2-carboxylic acid (1-isopropyl-piperidin-4-yl)-amide]
7	CC(C)N1CCC(NC(=O)c2nc3c(CO)cccc3n2CC(=O)Nc2ccc(Cl)cn2)CC1 [Example 71, 1-[(5-Chloro-pyridin-2-ylcarbamoyl)-methyl]-4-hydroxymethyl-1H-benzoimidazole-2-carboxylic acid (1-isopropyl-piperidin-4-yl)-amide]
2	CC(C)N1CCC(NC(=O)c2nc3c(C(=O)OCCO)cccc3n2Cc2cc(-c3ccc(Cl)s3)on2)CC1 [Example 64, 1-[5-(5-Chloro-thiophen-2-yl)-isoxazol-3-ylmethyl]-2-(1-isopropyl-piperidin-4-ylcarbamoyl)-1H-benzoimidazole-4-carboxylic acid 2-hydroxy-ethyl ester]
12.5	CCOC(=O)OC(C)OC(=O)c1cccc2c1nc(C(=O)NC1CCN(C(C)C)CC1)n2CC(=O)Nc1ccc(Cl)cn1 (centres unmarked) [Example 33, 1-[(5-Chloro-pyridin-2-ylcarbamoyl)-methyl]-2-(1-isopropyl-piperidin-4-ylcarbamoyl)-1H-benzoimidazole-4-carboxylic acid 1-ethoxycarbonyloxy-ethyl ester]
1	COC(=O)c1cccc2nc(C(=O)NC3CCN(C(C)C)CC3)n(Cc3cc(-c4ccc(Cl)s4)on3)c12 [Example 11b, 3-[5-(5-Chloro-thiophen-2-yl)-isoxazol-3-ylmethyl]-2-(1-isopropyl-piperidin-4-ylcarbamoyl)-3H-benzoimidazole-4-carboxylic acid methyl ester]
3	CC(C)N1CCC(NC(=O)c2nc3c(C(=O)OCC(=O)O)cccc3n2Cc2cc(-c3ccc(Cl)s3)on2)CC1 [Example 66, 1-[5-(5-Chloro-thiophen-2-yl)-isoxazol-3-ylmethyl]-2-(1-isopropyl-piperidin-4-ylcarbamoyl)-1H-benzoimidazole-4-carboxylic acid carboxymethyl ester]
6.5	COCCOc1cccc2c1nc(C(=O)NC1CCN(C(C)C)CC1)n2CC(=O)Nc1ccc(Cl)cn1 [Example 108, 1-[(5-Chloro-pyridin-2-ylcarbamoyl)-methyl]-4-(2-methoxy-ethoxy)-1H-benzoimidazole-2-carboxylic acid (1-isopropyl-piperidin-4-yl)-amide]
31	CC(OC(=O)OC1CCCCC1)OC(=O)c1cccc2c1nc(C(=O)NC1CCN(C(C)C)CC1)n2Cc1cc(-c2ccc(Cl)s2)on1 (centres unmarked) [Example 21, 1-[5-(5-Chloro-thiophen-2-yl)-isoxazol-3-ylmethyl]-2-(1-isopropyl-piperidin-4-ylcarbamoyl)-1H-benzoimidazole-4-carboxylic acid 1-cyclohexyloxycarbonyloxy-ethyl ester]
210	O=C1CCN(c2ccc(NC(=O)c3nc4ccccc4n3Cc3cc(-c4ccc(Cl)s4)on3)cc2)CC1 [Example 45, 1-[5-(5-Chloro-thiophen-2-yl)-isoxazol-3-ylmethyl]-1H-benzoimidazole-2-carboxylic acid [4-(4-oxo-piperidin-1-yl)-phenyl]-amide]
3.5	CCOCCOc1cccc2c1nc(C(=O)NC1CCN(C(C)C)CC1)n2CC(=O)Nc1ccc(Cl)cn1 [Example 109, 1-[(5-Chloro-pyridin-2-ylcarbamoyl)-methyl]-4-(2-ethoxy-ethoxy)-1H-benzoimidazole-2-carboxylic acid (1-isopropyl-piperidin-4-yl)-amide]
4	CC(C)N1CCC(NC(=O)c2nc3c(OCCO)cccc3n2CC(=O)Nc2ccc(Cl)cn2)CC1 [Example 110, 1-[(5-Chloro-pyridin-2-ylcarbamoyl)-methyl]-4-(2-hydroxy-ethoxy)-1H-benzoimidazole-2-carboxylic acid (1-isopropyl-piperidin-4-yl)-amide]
510	O=C(Cn1c(C(=O)Nc2ccc(N3CCNCC3=O)cc2)nc2ccccc21)Nc1ccc(Cl)cn1 [Example 51, 1-[(5-Chloro-pyridin-2-ylcarbamoyl)-methyl]-1H-benzoimidazole-2-carboxylic acid [4-(2-oxo-piperazin-1-yl)-phenyl]-amide]
